According to US10323022B2, “Pyrrolidinyl urea, pyrrolidinyl thiourea and pyrrolidinyl guanidine compounds as TrkA kinase inhibitors” (Array BioPharma Inc., priority 2011, dated 2019):

target: TrkA (Homo sapiens (Human), UniProt P04629); test: TrkA Omnia Assay; format: biochemical; conditions: averaged IC50; 20 nM enzyme, 500 μM ATP, 10 μM peptide substrate
Procedure, shortened: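 Recombinant TrkA (20 nM) preincubated 10 min at ambient temperature with compound, then Omnia Tyr Peptide #4 (10 μM) and ATP (500 μM) added in 25 mM MOPS pH 7.5, 5 mM MgCl2, 0.005% Triton X-100. Fluorescence (ex 360/em 485 nm) followed continuously for 70 min; IC50 from initial rates by 4- or 5-parameter logistic fit.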

Sequence of TrkA (P04629 33-796): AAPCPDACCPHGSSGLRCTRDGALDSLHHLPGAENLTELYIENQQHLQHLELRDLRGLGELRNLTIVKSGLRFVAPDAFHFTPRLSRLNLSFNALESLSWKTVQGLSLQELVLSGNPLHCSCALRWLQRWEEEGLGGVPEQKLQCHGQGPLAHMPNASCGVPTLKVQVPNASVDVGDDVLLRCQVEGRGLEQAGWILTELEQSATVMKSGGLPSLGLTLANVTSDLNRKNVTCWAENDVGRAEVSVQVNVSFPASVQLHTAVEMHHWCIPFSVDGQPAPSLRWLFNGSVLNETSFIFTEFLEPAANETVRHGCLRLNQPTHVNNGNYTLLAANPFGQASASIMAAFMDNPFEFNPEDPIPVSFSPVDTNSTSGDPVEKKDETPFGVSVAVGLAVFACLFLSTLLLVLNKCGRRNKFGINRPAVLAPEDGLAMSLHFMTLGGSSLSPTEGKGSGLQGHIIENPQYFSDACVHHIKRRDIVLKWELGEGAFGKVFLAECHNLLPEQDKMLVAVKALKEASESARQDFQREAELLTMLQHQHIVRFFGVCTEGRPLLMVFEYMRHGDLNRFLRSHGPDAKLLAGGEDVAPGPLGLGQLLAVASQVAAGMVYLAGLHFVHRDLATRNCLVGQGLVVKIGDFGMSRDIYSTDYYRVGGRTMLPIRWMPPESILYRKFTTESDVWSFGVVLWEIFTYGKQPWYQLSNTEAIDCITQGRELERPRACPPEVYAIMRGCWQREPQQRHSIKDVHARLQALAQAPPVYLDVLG

Structure (SMILES) | IC50 [µM]
Cc1c(OC[C@H]2COC(C)(C)O2)nn(-c2ccccc2)c1NC(=O)N[C@H]1CN(CC(F)(F)F)C[C@@H]1c1ccccc1 [Example 271, 1-(3-(((S)-2,2-dimethyl-1,3-dioxolan-4-yl)methoxy)-4-methyl-1-phenyl-1H-pyrazol-5-yl)-3-((3R,4S)-4-phenyl-1-(2,2,2-trifluoroethyl)pyrrolidin-3-yl)urea] | < 0.1
Cc1c(OC[C@H](O)CO)nn(-c2ccccc2)c1NC(=O)N[C@H]1CN(CC(F)(F)F)C[C@@H]1c1ccccc1 [Example 272, 1-(3-((R)-2,3-dihydroxvpropoxy)-4-methyl-1-phenyl-1H-pyrazol-5-yl)-3-((3R,4S)-4-phenyl-1-(2,2,2-trifluoroethyl)pyrrolidin-3-yl)urea] | < 0.1
C[C@@H]1C(NC(=O)Nc2c3c(nn2-c2ccccc2)CCC3)[C@H](c2ccccc2)CN1CC(F)(F)F (stereo partly drawn) [Example 273, (R,S)1-((2α,3β,4α)-2-methyl-4-phenyl-1-(2,2,2-trifluoroethyl)pyrrolidin-3-yl)-3-(2-phenyl-2,4,5,6-tetrahydrocyclopenta[c]pyrazol-3-yl)urea] | 0.1 to 1
C[C@H]1[C@@H](c2ccccc2)C(NC(=O)Nc2c3c(nn2-c2ccccc2)CCC3)CN1CC(F)(F)F (stereo partly drawn) [Example 274, (R,S)-1-((3β,4α,5α)-5-methyl-4-phenyl-1-(2,2,2-trifluoroethyl)pyrrolidin-3-yl)-3-(2-phenyl-2,4,5,6-tetrahydrocyclopenta[c]pyrazol-3-yl)urea] | 0.1 to 1
CCOc1nn(-c2ccccc2)c(NC(=O)N[C@@H]2CN([C@@H](CO)C(F)(F)F)C[C@H]2c2ccc(F)c(F)c2)c1C [Example 275, 1-((3S,4R)-4-(3,4-difluorophenyl)-1-((S)-1,1,1-trifluoro-3-hydroxypropan-2-yl)pyrrolidin-3-yl)-3-(3-ethoxv-4-methyl-1-phenyl-1H-pyrazol-5-yl)urea] | 0.1 to 1
CCOc1nn(-c2ccccc2)c(NC(=O)N[C@@H]2CN([C@@H](COC)C(F)(F)F)C[C@H]2c2ccc(F)c(F)c2)c1C [Example 276, 1-((3S,4R)-4-(3,4-difluorophenyl)-1-((S)-1,1,1-trifluoro-3-methoxypropan-2-yl)pyrrolidin-3-yl)-3-(3-ethoxv-4-methyl-1-phenyl-1H-pyrazol-5-yl)urea] | < 0.1
COC[C@H](N1C[C@@H](NC(=O)Nc2c(C)c(OC[C@H](C)O)nn2-c2ccccc2)[C@H](c2ccc(F)c(F)c2)C1)C(F)(F)F [Example 277, 1-((3S,4R)-4-(3,4-difluorophenyl)-1-((S)-1,1,1-trifluoro-3-methoxypropan-2-yl)pyrrolidin-3-yl)-3-(3-((S)-2-hydroxypropoxy)-4-methyl-1-phenyl-1H-pyrazol-5-yl)urea] | < 0.1
COC[C@@H](N1C[C@@H](NC(=O)Nc2c(Cl)c(-c3cnn(C)c3)nn2-c2ccccc2)[C@H](c2ccc(F)c(F)c2)C1)C(F)(F)F [Example 278, 1-(4-chloro-1′-methyl-1-phenyl-1H, 1′H-3,4′-bipyrazol-5-yl)-3-((3S,4R)-4-(3,4-difluorophenyl)-1-((R)-1,1,1-trifluoro-3-methoxypropan-2-yl)pyrrolidin-3-yl)urea] | < 0.1
COC[C@@H](N1C[C@@H](NC(=O)Nc2c(C)c(OC[C@H](C)O)nn2-c2ccccc2)[C@H](c2ccc(F)c(F)c2)C1)C(F)(F)F [Example 279, 1-((3S,4R)-4-(3,4-difluorophenyl)-1-((R)-1,1,1-trifluoro-3-methoxypropan-2-yl)pyrrolidin-3-yl)-3-(3-((S)-2-hydroxypropoxy)-4-methyl-1-phenyl-1H-pyrazol-5-yl)urea] | 0.1 to 1
COCCCc1nn(-c2ccccc2)c(NC(=O)N[C@@H]2CN(CCOC)C[C@H]2c2cc(F)cc(F)c2)c1C [Example 281, 1-((3S,4R)-4-(3,5-difluorophenyl)-1-(2-methoxyethyl)pyrrolidin-3-yl)-3-(3-(3-methoxypropyl)-4-methyl-1-phenyl-1H-pyrazol-5-yl)urea] | < 0.1
COCCN1C[C@@H](NC(=O)Nc2c(C)c(C(F)(F)CO)nn2-c2ccccc2)[C@H](c2ccc(F)c(F)c2)C1 [Example 282, 1-(3-(1,1-difluoro-2-hydroxyethyl)-4-methyl-1-phenyl-1H-pyrazol-5-yl)-3-((3S,4R)-4-(3,4-difluorophenyl)-1-(2-methoxyethyl)pyrrolidin-3-yl)urea] | < 0.1
COCCN1C[C@@H](NC(=O)Nc2c(C)c(C(F)(F)CO)nn2-c2ccccc2)[C@H](c2cc(F)cc(F)c2)C1 [Example 283, 1-(3-(1,1-difluoro-2-hydroxyethyl)-4-methyl-1-phenyl-1H-pyrazol-5-yl)-3-((3S,4R)-4-(3,5-difluorophenyl)-1-(2-methoxyethyl)pyrrolidin-3-yl)urea] | < 0.1
COCCN1C[C@@H](NC(=O)Nc2c(C)c(C(F)(F)CO)nn2-c2ccccc2)[C@H](c2ccc(F)cc2)C1 [Example 284, 1-(3-(1,1-difluoro-2-hydroxyethyl)-4-methyl-1-phenyl-1H-pyrazol-5-yl)-3-((3S,4R)-4-(4-fluorophenyl)-1-(2-methoxyethyl)pyrrolidin-3-yl)urea] | < 0.1
COCCN1C[C@@H](NC(=O)Nc2cc(C(F)(F)CO)nn2-c2ccccc2)[C@H](c2ccc(F)c(F)c2)C1 [Example 285, 1-(3-(1,1-difluoro-2-hydroxyethyl)-1-phenyl-1H-pyrazol-5-yl)-3-((3S,4R)-4-(3,4-difluorophenyl)-1-(2-methoxyethyl)pyrrolidin-3-yl)urea] | < 0.1
COCCN1C[C@@H](NC(=O)Nc2c(C)c(CCO)nn2-c2ccccc2)[C@H](c2cc(F)cc(F)c2)C1 [Example 286, 1-((3S,4R)-4-(3,5-difluorophenyl)-1-(2-methoxyethyl)pyrrolidin-3-yl)-3-(3-(2-hydroxyethyl)-4-methyl-1-phenyl-1H-pyrazol-5-yl)urea] | < 0.1
COCCN1C[C@@H](NC(=O)Nc2c(C)c(CCO)nn2-c2ccccc2)[C@H](c2ccc(F)cc2)C1 [Example 287, 1-((3S,4R)-4-(4-fluorophenyl)-1-(2-methoxyethyl)pyrrolidin-3-yl)-3-(3-(2-hydroxyethyl)-4-methyl-1-phenyl-1H-pyrazol-5-yl)urea] | < 0.1
COCCN1C[C@@H](NC(=O)Nc2c(C)c(CC(C)(C)O)nn2-c2ccccc2)[C@H](c2ccc(F)c(F)c2)C1 [Example 288, 1-((3S,4R)-4-(3,4-difluorophenyl)-1-(2-methoxyethyl)pyrrolidin-3-yl)-3-(3-(2-hydroxy-2-methylpropyl)-4-methyl-1-phenyl-1H-pyrazol-5-yl)urea] | < 0.1
COCCN1C[C@@H](NC(=O)Nc2c(C)c(C[C@H](C)O)nn2-c2ccccc2)[C@H](c2ccc(F)c(F)c2)C1 [Example 289, 1-((3S,4R)-4-(3,4-difluorophenyl)-1-(2-methoxyethyl)pyrrolidin-3-yl)-3-(3-((S)-2-hydroxypropyl)-4-methyl-1-phenyl-1H-pyrazol-5-yl)urea] | < 0.1
COCCN1C[C@@H](NC(=O)Nc2c(C)c(C[C@@H](C)O)nn2-c2ccccc2)[C@H](c2ccc(F)c(F)c2)C1 [Example 290, 1-((3S,4R)-4-(3,4-difluorophenyl)-1-(2-methoxyethyl)pyrrolidin-3-yl)-3-(3-((R)-2-hydroxypropyl)-4-methyl-1-phenyl-1H-pyrazol-5-yl)urea] | < 0.1
CCOC(=O)c1nn(-c2ccccc2)c(NC(=O)N[C@@H]2CN(CCOC)C[C@H]2c2ccc(F)c(F)c2)c1C [Example 291, ethyl 5-(3-((3S,4R)-4-(3,4-difluorophenyl)-1-(2-methoxyethyl)pyrrolidin-3-yl)ureido)-4-methyl-1-phenyl-1H-pyrazole-3-carboxylate] | < 0.1
CNC(=O)c1nn(-c2ccccc2)c(NC(=O)N[C@@H]2CN(CCOC)C[C@H]2c2ccc(F)cc2)c1C [Example 292, 5-(3-((3S,4R)-4-(4-fluorophenyl)-1-(2-methoxyethyl)pyrrolidin-3-yl)ureido)-N,4-dimethyl-1-phenyl-1H-pyrazole-3-carboxamide] | < 0.1
COCCN1C[C@@H](NC(=O)Nc2c(C)c(-c3nnc(C)o3)nn2-c2ccccc2)[C@H](c2ccc(F)c(F)c2)C1 [Example 297, 1-((3S,4R)-4-(3,4-difluorophenyl)-1-(2-methoxyethyl)pyrrolidin-3-yl)-3-(4-methyl-3-(5-methyl-1,3,4-oxadiazol-2-yl)-1-phenyl-1H-pyrazol-5-yl)urea] | < 0.1
COCCN1C[C@@H](NC(=O)Nc2c(C)c(-c3nc(C)no3)nn2-c2ccccc2)[C@H](c2ccc(F)c(F)c2)C1 [Example 298, 1-((3S,4R)-4-(3,4-difluorophenyl)-1-(2-methoxyethyl)pyrrolidin-3-yl)-3-(4-methyl-3-(3-methyl-1,2,4-oxadiazol-5-yl)-1-phenyl-1H-pyrazol-5-yl)urea] | < 0.1
COCCN1C[C@@H](NC(=O)Nc2c(C)c(-c3nc(C(F)(F)F)no3)nn2-c2ccccc2)[C@H](c2ccc(F)c(F)c2)C1 [Example 299, 1-((3S,4R)-4-(3,4-difluorophenyl)-1-(2-methoxyethyl)pyrrolidin-3-yl)-3-(4-methyl-1-phenyl-3-(3-(trifluoromethyl)-1,2,4-oxadiazol-5-yl)-1H-pyrazol-5-yl)urea] | < 0.1
COCCN1C[C@@H](NC(=O)Nc2c(C)c(-c3nc(C(F)(F)F)no3)nn2-c2ccccc2)[C@H](c2ccc(F)cc2)C1 [Example 300, 1-((3S,4R)-4-(4-fluorophenyl)-1-(2-methoxyethyl)pyrrolidin-3-yl)-3-(4-methyl-1-phenyl-3-(3-(trifluoromethyl)-1,2,4-oxadiazol-5-yl)-1H-pyrazol-5-yl)urea] | < 0.1
COCCN1C[C@@H](NC(=O)Nc2c(C)c(-c3cc(C)n(C)n3)nn2-c2ccccc2)[C@H](c2ccc(F)c(F)c2)C1 [Example 305, 1-((3S,4R)-4-(3,4-difluorophenyl)-1-(2-methoxyethyl)pyrrolidin-3-yl)-3-(1′,4,5′-trimethyl-1-phenyl-1H,1′H-[3,3′-bipyrazol]-5-yl)urea] | < 0.1
